Target: T1, Angiotensin II receptor (Rattus norvegicus, UniProt P29089+P25095+P35351)
T1 sequence (P29089 whole entry): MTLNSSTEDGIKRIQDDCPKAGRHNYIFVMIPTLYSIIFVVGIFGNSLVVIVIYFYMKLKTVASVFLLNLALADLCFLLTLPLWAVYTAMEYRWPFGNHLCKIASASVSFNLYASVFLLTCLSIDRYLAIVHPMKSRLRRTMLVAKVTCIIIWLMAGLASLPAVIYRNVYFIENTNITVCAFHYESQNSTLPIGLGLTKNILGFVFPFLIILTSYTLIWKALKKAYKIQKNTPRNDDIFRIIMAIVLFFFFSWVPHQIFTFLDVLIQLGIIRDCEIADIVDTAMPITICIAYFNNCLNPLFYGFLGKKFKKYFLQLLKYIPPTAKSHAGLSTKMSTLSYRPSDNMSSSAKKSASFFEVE
T1 sequence (P25095 whole entry): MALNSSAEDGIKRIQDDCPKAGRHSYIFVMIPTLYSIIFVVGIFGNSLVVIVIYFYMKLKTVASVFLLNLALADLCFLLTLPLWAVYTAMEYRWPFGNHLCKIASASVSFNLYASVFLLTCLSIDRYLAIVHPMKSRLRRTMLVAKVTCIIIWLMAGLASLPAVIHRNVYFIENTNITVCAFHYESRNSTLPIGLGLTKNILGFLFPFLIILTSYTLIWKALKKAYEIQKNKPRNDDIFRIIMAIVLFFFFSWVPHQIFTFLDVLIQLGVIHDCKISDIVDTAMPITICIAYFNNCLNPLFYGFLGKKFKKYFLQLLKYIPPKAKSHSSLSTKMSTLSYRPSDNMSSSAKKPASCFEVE
T1 sequence (P35351 whole entry): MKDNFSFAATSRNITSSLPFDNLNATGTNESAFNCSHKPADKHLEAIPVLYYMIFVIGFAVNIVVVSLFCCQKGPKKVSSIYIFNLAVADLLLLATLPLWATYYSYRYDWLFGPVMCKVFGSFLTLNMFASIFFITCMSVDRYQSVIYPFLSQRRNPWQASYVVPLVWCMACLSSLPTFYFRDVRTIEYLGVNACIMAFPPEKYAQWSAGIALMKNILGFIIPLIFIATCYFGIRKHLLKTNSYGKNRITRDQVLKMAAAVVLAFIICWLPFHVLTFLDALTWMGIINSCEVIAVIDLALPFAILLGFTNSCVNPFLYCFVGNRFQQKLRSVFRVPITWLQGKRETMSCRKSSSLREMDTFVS
Experiment: Inhibition of [125I]-AII binding to Angiotensin II receptor of rat uterine membrane

Compared with CCCCc1cn(-c2ccccc2CC)c(=O)n1Cc1ccc(-c2ccccc2-c2nn[nH]n2)nc1, CCCCc1cn(-c2ccccc2C)c(=O)n1Cc1ccc(-c2ccccc2-c2nn[nH]n2)nc1 is 2.1-fold higher in IC50: 4.5 nM for the first, 9.4 nM for the second.

Going from CCCCc1cn(-c2c(C(C)C)cccc2C(C)C)c(=O)n1Cc1ccc(-c2ccccc2-c2nn[nH]n2)nc1 to CCCCc1cn(-c2ccccc2C(C)C)c(=O)n1Cc1ccc(-c2ccccc2-c2nn[nH]n2)nc1, the IC50 falls from 34 nM to 14 nM (2.4-fold).

CCCCc1cn(-c2c(CC)cccc2CC)c(=O)n1Cc1ccc(-c2ccccc2-c2nn[nH]n2)nc1 and CCCCc1cn(-c2c(C)cccc2C)c(=O)n1Cc1ccc(-c2ccccc2-c2nn[nH]n2)nc1 are the same in IC50: 5 nM for the first, 5 nM for the second.

Compared with CCCCc1cn(-c2ccccc2C(C)(C)C)c(=O)n1Cc1ccc(-c2ccccc2-c2nn[nH]n2)nc1, CCCCc1cn(-c2ccccc2)c(=O)n1Cc1ccc(-c2ccccc2-c2nn[nH]n2)nc1 is 2.4-fold higher in IC50: 19 nM for the first, 45 nM for the second.

Going from CCCCc1nc(CCCC)n(Cc2ccc(-c3ccccc3-c3nn[nH]n3)cc2)n1 to CCCCc1cn(CCCC)c(=O)n1Cc1ccc(-c2ccccc2-c2nn[nH]n2)cc1 [SC-51895], the IC50 rises from 5.6 nM to 12 nM (2.1-fold).

Going from CCCCC1=NC2(CCCC2)C(=O)N1Cc1ccc(-c2ccccc2-c2nnn[nH]2)cc1 [IRBESARTAN] to CCCCc1cn([C@H]2[C@H](C)CCC[C@@H]2C)c(=O)n1Cc1ccc(-c2ccccc2-c2nn[nH]n2)nc1 [SC-55634], the IC50 rises from 1.3 nM to 4.9 nM (3.8-fold).

For CCCCc1cn(CCCC)c(=O)n1Cc1ccc(-c2ccccc2-c2nn[nH]n2)nc1 [SC-52892], the IC50 was 6.5 nM.

Source: ChEMBL document CHEMBL1126489, “N1-sterically hindered 2H-imidazol-2-one angiotensin II receptor antagonists: The conversion of surmountable antagonists to insurmountable antagonists” (Bioorg Med Chem Lett, 1993)
